In publication PMC10938783, “A novel pan-PI3K inhibitor KTC1101 synergizes with anti-PD-1 therapy by targeting tumor suppression and immune activation” (Molecular Cancer, 2024):

Test system: B16 cells gene expression
Test: RNA-Seq (DEGs, GSEA, heatmaps) of B16 cells
Details: KTC1101 0.2μM, B16 cells, GSEA KEGG

## COc1cc(N)cc2c1nc(C(F)F)n2-c1nc(N2CCCOCC2)nc(N2CCOCC2)n1 [KTC1101, 2-(difluoromethyl)-4-methoxy-1-(4-morpholino-6-(1,4-oxazepan-4-yl)-1,3,5-triazin-2-yl)-1H-benzo[d]imidazol-6-amine]
  NES, mmu00600 Sphingolipid metabolism: -0.9518
  NES, mmu00860 Porphyrin metabolism: -1.036
  NES, mmu00980 Metabolism of xenobiotics by cytochrome P450: -1.182
  NES, mmu00982 Drug metabolism - cytochrome P450: -1.185
  NES, mmu01250 Biosynthesis of nucleotide sugars: -1.14
  NES, mmu01522 Endocrine resistance: 0.9546
  NES, mmu01523 Antifolate resistance: -0.7817
  NES, mmu02010 ABC transporters: -0.733
  NES, mmu03008 Ribosome biogenesis in eukaryotes: 0.4012
  NES, mmu03015 mRNA surveillance pathway: -0.5314
  NES, mmu03018 RNA degradation: -0.9036
  NES, mmu03022 Basal transcription factors: -0.6056
  NES, mmu03040 Spliceosome: -0.8341
  NES, mmu03060 Protein export: -1.073
  NES, mmu03082 ATP-dependent chromatin remodeling: 0.5087
  NES, mmu03083 Polycomb repressive complex: 0.285
  NES, mmu03250 Viral life cycle - HIV-1: -0.5849
  NES, mmu03410 Base excision repair: 0.509
  NES, mmu03420 Nucleotide excision repair: -0.5668
  NES, mmu03430 Mismatch repair: -0.5004
  NES, mmu03460 Fanconi anemia pathway: -1.065
  NES, mmu04014 Ras signaling pathway: -1.059
  NES, mmu04068 FoxO signaling pathway: 0.8311
  NES, mmu04070 Phosphatidylinositol signaling system: -0.719
  NES, mmu04071 Sphingolipid signaling pathway: -0.7752
  NES, mmu04115 p53 signaling pathway: 0.8074
  NES, mmu04120 Ubiquitin mediated proteolysis: -0.8155
  NES, mmu04130 SNARE interactions in vesicular transport: -0.572
  NES, mmu04136 Autophagy - other: 0.5764
  NES, mmu04137 Mitophagy - animal: -1.12
  NES, mmu04140 Autophagy - animal: -0.941
  NES, mmu04144 Endocytosis: 0.5953
  NES, mmu04146 Peroxisome: 0.8534
  NES, mmu04148 Efferocytosis: 0.8875
  NES, mmu04150 mTOR signaling pathway: -1.035
  NES, mmu04152 AMPK signaling pathway: -1.036
  NES, mmu04210 Apoptosis: 0.7025
  NES, mmu04211 Longevity regulating pathway: 0.8953
  NES, mmu04213 Longevity regulating pathway - multiple species: 0.9083
  NES, mmu04215 Apoptosis - multiple species: 0.9536
  NES, mmu04216 Ferroptosis: -1.019
  NES, mmu04217 Necroptosis: -1.0231
  NES, mmu04270 Vascular smooth muscle contraction: 0.9765
  NES, mmu04360 Axon guidance: 1.086
  NES, mmu04392 Hippo signaling pathway - multiple species: 1.0712
  NES, mmu04514 Cell adhesion molecules: 1.133
  NES, mmu04520 Adherens junction: 0.8769
  NES, mmu04530 Tight junction: -0.672
  NES, mmu04550 Signaling pathways regulating pluripotency of stem cells: 1.1205
  NES, mmu04611 Platelet activation: 0.9386
  NES, mmu04612 Antigen processing and presentation: 0.9078
  NES, mmu04622 RIG-I-like receptor signaling pathway: 0.797
  NES, mmu04623 Cytosolic DNA-sensing pathway: 1.118
  NES, mmu04650 Natural killer cell mediated cytotoxicity: 0.8466
  NES, mmu04658 Th1 and Th2 cell differentiation: 1.107
  NES, mmu04660 T cell receptor signaling pathway: 0.5971
  NES, mmu04662 B cell receptor signaling pathway: 0.8546
  NES, mmu04666 Fc gamma R-mediated phagocytosis: -1.143
  NES, mmu04670 Leukocyte transendothelial migration: 0.7018
  NES, mmu04714 Thermogenesis: -1.042
  NES, mmu04720 Long-term potentiation: 0.7614
  NES, mmu04723 Retrograde endocannabinoid signaling: 1.004
  NES, mmu04726 Serotonergic synapse: 1.185
  NES, mmu04727 GABAergic synapse: 1.114
  NES, mmu04728 Dopaminergic synapse: 0.9578
  NES, mmu04730 Long-term depression: 1.063
  NES, mmu04750 Inflammatory mediator regulation of TRP channels: 0.9151
  NES, mmu04910 Insulin signaling pathway: 1.052
  NES, mmu04912 GnRH signaling pathway: 1.125
  NES, mmu04915 Estrogen signaling pathway: 0.9405
  NES, mmu04916 Melanogenesis: 0.9564
  NES, mmu04917 Prolactin signaling pathway: 0.9333
  NES, mmu04920 Adipocytokine signaling pathway: 1.108
  NES, mmu04929 GnRH secretion: -1.07
  NES, mmu04930 Type II diabetes mellitus: 1.078
  NES, mmu04932 Non-alcoholic fatty liver disease: -1.05
  NES, mmu04934 Cushing syndrome: 0.9692
  NES, mmu04936 Alcoholic liver disease: 0.7413
  NES, mmu04960 Aldosterone-regulated sodium reabsorption: 1.176
  NES, mmu04961 Endocrine and other factor-regulated calcium reabsorption: 0.9748
  NES, mmu04962 Vasopressin-regulated water reabsorption: 1.132
